Assay results as given in US9358243B2, “Pharmaceutical compounds for use in the therapy of Clostridium difficile infection” (ETH Zurich, priority 2011, dated 2016).

What was measured:
[1] = target: T1, His-tagged cysteine protease domain of C. difficile toxin B (Clostridioides difficile, UniProt P18177); assay: Determination of EC50 in presence of 10 mM Ca2+ (cleavage of TcdB cysteine protease domain, SDS-PAGE); assay type: biochemical, Clostridium difficile; settings: for cleavage activity at 100 μM: 100 μM compound, 10 mM Ca2+, FIG. 1A; for activity (cleavage of TcdB CPD) in the presence of calcium, compared with IP6: in the presence of calcium (10 mM Ca2+)
T1 construct: cysteine protease domain of C. difficile toxin B
T1 sequence (P18177 544-799 limits assumed): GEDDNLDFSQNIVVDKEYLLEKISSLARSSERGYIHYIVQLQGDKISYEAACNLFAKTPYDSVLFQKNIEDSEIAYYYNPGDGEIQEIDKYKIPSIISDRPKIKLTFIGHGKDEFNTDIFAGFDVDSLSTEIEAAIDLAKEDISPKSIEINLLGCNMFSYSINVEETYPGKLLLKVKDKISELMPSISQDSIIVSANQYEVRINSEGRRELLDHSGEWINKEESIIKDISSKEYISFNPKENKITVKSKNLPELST
Experimental: The compound to be tested was added to a recombinant His-tagged cysteine protease domain of C. difficile toxin B of SEQ ID 1 in presence of 10 mM Ca^2+ in 100 mM Tris pH7.4 and incubated for 2 h at 37° C. Cleaved protein fragments were separated by SDS-PAGE and visualized by Coomassie staining. The extent of cleavage quantified from protein band intensities using the ImageJ software package. Signals were normalized to cleavage of positive and negative controls.

[2] = target: T1, His-tagged cysteine protease domain of C. difficile toxin B; assay: Comparison of cleavage kinetics in presence of 10 mM Ca2+; assay type: biochemical, Clostridium difficile; settings: 37° C., FIG. 1B
Experimental: The compound to be tested was added to the His-tagged cysteine protease domain of C. difficile toxin B (same sequence as given above) in presence of 10 mM Ca^2+ in 100 mM Tris pH 7.4 and incubated for 24 h at 37° C., with aliquots removed at regular intervals. Cleaved protein fragments were separated, visualized and analyzed as indicated above.

| Compound | EC50 [1] [µM] | cleavage activity at 100 μM [1] | activity (cleavage of TcdB CPD) in the presence of calcium, compared with IP6 [1] | extent of cleavage after 4 h relative to IP6 [2] [fold] |
| --- | --- | --- | --- | --- |
| O=P(O)(O)O[C@H]1[C@H](OP(=O)(O)O)[C@@H](OP(=O)(O)O)[C@H](OP(=O)(O)O)[C@@H](OP(=O)(O)O)[C@H]1OP(=O)(O)O [IP6, myo-inositol hexakisphosphate, reference compound] | 601 | disappears almost completely |  |  |
| O=S(=O)(O)OC1C(OS(=O)(=O)O)C(OS(=O)(=O)O)C(OS(=O)(=O)O)C(OS(=O)(=O)O)C1OS(=O)(=O)O (stereo not shown) [IS6, inositolhexakissulfate] |  |  | much more active than IP6 |  |
| O=P(O)(O)O[C@H]1[C@H](OS(=O)(=O)O)[C@@H](OP(=O)(O)O)[C@H](OS(=O)(=O)O)[C@@H](OP(=O)(O)O)[C@H]1OS(=O)(=O)O [PSPSPS] | 20 |  |  |  |
| myo-inositol-pentakisphosphate-2-PEG(400) [(7)] |  | retains residual activity | improved ability to cleave TcdB CPD | 5 |
